Laboratory results reported in ChEMBL document CHEMBL5543143, “Potentiating Activity of GmhA Inhibitors on Gram-Negative Bacteria” (J Med Chem, 2024).
The source made the active and inactive calls. No cut-off for these calls is given here.

Columns and labels:
[1] = system: Escherichia coli; test: Antibacterial activity in Escherichia coli C7 (018:K1:H7) assessed as reduction in bacterial growth at 300 uM measured after 24 hrs by time-kill kinetics assay; assay type: functional, organism-based
[2] = system: Escherichia coli; test: Potentiation of erythromycin induced antibacterial activity against Escherichia coli C7 (018:K1:H7) assessed as erythromycin MIC incubated overnight by two fold serial dilution assay; assay type: functional
[3] = biological target: Phosphoheptose isomerase (Escherichia coli (strain K12), UniProt P63224); parameters: species or system K96243
[4] = system: HepG2; test: Cytotoxicity against human HepG2 cells incubated overnight by Celltiter aqueous one solution cell proliferation assay; assay type: functional
[5] = system: Escherichia coli; test: Potentiation of rifampicin induced antibacterial activity against Escherichia coli C7 (018:K1:H7) assessed as rifampicin MIC incubated overnight by two fold serial dilution assay; assay type: functional

Phosphoheptose isomerase, sequence (P63224 whole entry, looked up): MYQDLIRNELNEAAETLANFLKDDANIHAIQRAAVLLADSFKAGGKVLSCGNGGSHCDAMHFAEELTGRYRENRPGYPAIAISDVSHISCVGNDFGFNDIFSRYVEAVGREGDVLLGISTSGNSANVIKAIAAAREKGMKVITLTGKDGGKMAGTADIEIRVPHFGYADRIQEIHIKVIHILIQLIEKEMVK

Compound | Activity [1] | MIC [2] | IC50 [3] | CC50 [4] | MIC [5]
O=CN(O)C[C@H](O)[C@H](O)[C@H](O)COP(=O)(O)O | inactive | 1 µg/mL | 0.002 µM | > 1000 µM | 0.25 µg/mL
O=CN(O)C[C@H](O)[C@H](O)[C@H](O)CCP(=O)(O)O | – | – | – | > 1000 µM | –
